Assays:
[1] = target: Thropomyosin Receptor Kinase A (TRKA) (Homo sapiens, UniProt P04629); test: Scintillation Proximity Assay (SPA) for kinases; assay type: biochemical; details: read-out: IC50 (printed 1050) towards TRKA
Experimental: This assay allows measurement of the inhibition of the kinase activity of a specific enzyme obtained with test compound. Different kinases can be tested in parallel.
A biotinylated substrate is trans-phosphorylated by a specific kinase in the presence of ATP including a γ33-ATP tracer. At the end of the reaction the phosphorylated substrate is then captured using Streptavidin-coated SPA beads. A dense 5M CsCl solution is added and the mixture is incubated for four hours. This causes the SPA beads to float to the top of the CsCl solution containing the unincorporated radiolabelled ATP.
The extent of phosphorylation is measured using a β-counter.

[2] = system: MSTO-211H mesothelioma cell line; test: Inhibition of cell proliferation (cellular ATP monitoring); assay type: cell-based; details: Homo sapiens, 72 hours after treatment
Experimental: (§1) MSTO-211H, NCI-H2052 and NCI-H28 mesothelioma cell lines were cultured in RPMI 1640 added with 10% FCS, 2 mM glutamine, 1 mM sodium pyruvate and 10 mM HEPES. For all the experiments cells were seeded at the density of 1×10^4/cm^2, the day after treatment with the compound for the prescribed duration and then collected at the reported times.
(§2) Cells were washed and counted 72 hours after the treatment. Cell proliferation was determined by a cellular adenosine triphosphate monitoring system. Cell proliferation was compared to control cells. The concentration inhibiting cell proliferation by 50% (IC50) was calculated.

[3] = system: NCI-H2052 mesothelioma cell line; test: as above; assay type: cell-based; details: Homo sapiens; NCI-H2052, 72 hours after treatment
Experimental: as §1, §2

[4] = system: NCI-H28 mesothelioma cell line; test: as above; assay type: cell-based; details: Homo sapiens; NCI-H28, 72 hours after treatment
Experimental: as §1, §2

[5] = system: MSTO-211H mesothelioma cell line; test: Analysis of cell cycle progression and apoptosis induction (cytofluorimetry, propidium iodide); assay type: cell-based
Experimental: (§3) MSTO-211H, NCI-H2052 and NCI-H28 mesothelioma cell lines were cultured in RPMI 1640 added with 10% FCS, 2 mM glutamine, 1 mM sodium pyruvate and 10 mM HEPES. For all the experiments cells were seeded at the density of 1×10^4/cm^2, the day after treatment with the compound for the prescribed duration and then collected at the reported times. Cells were washed 24 hours after the treatment, fixed with cold methanol 70% and stored at −20° C. Fixed cells were washed with PBS to remove methanol and were stained with 25 μg/mL of propidium iodide, 5 μg/mL of RNase, and 0.125 μg/mL of Nonidet P 40. Cells were kept at room temperature for 60 minutes in the dark and were analyzed by BD FACSCalibur™ system interfaced to a Macintosh G4 computer with BD CellQuest™ 3.3 software. All doublets or aggregates were removed during analysis by an appropriate gate on an FL3-A/FL3-W dot plot and DNA content analysis was performed in ≧10,000 gated cells. DNA histograms (shown in FIG. 1) were analyzed using ModFit LT™

[6] = system: NCI-H2052 mesothelioma cell line; test: as above; assay type: cell-based; details: NCI-H2052, 24 hours after treatment, cytofluorimetric analysis
Experimental: as §3

[7] = system: NCI-H28 mesothelioma cell line; test: as above; assay type: cell-based; details: NCI-H28, 24 hours after treatment, cytofluorimetric analysis
Experimental: as §3

[8] = system: mesothelioma cells (MSTO-211H, NCI-H2052, NCI-H28); test: Inhibition of cell proliferation, summary over all tested mesothelioma cells; assay type: cell-based; details: all the tested mesothelioma cells, 72 hours; read-out: IC50 range, inhibition of proliferation
Experimental: as §1, §2

[9] = system: Rb phosphorylation, cyclin A and cdc6 expression in NCI-H28 cells; test: Western blot analysis of cell cycle related markers; assay type: cell-based; details: 1 and 3 μM, 24 hours, FIG. 2
Experimental: (§4) Treated cells were lysed by adding SDS sample buffer (0.125M Tris-HCl pH6.8, 5% SDS). Samples were heated to 95° C. for 5 minutes and then sonicated using an Ultrasonic 2000 ARTEK. Lysed cells were centrifuged at 13,000 RPM for 10 minutes. Protein quantification was determined using BCA buffer (Pierce) and a BSA standard curve. 20 μg protein extract per well were loaded and separated by SDS-PAGE gel 7.5-10% (PAGE-PLUS 40% concentrate AMRESCO). The gel was blotted onto nitrocellulose filters (Hybond Amersham) in a buffer containing 25 mM Tris HCl pH 8.3, 192 mM Glycine and 20% methanol. The filters were saturated in 5% low-fat milk in TBS containing 0.1% Tween 20 (TBS-T) for 2 hours at room temperature and than incubated overnight at 4° C. with the primary monoclonal followed by washes in TBS-T and incubation using a secondary anti mouse antibody. The bands were visualized using the “Super Signal West Pico” Pierce.

[10] = system: phosphorylation of AKT, S6 and MAPK in NCI-H28 cells; test: Western blot analysis of tyrosine kinase growth factor receptor mediated pathways; assay type: cell-based; details: 1 and 3 μM, FIG. 2
Experimental: as §4

[11] = system: cell cycle related markers in mesothelioma cell lines; test: Western blot analysis of cell cycle related markers, all cell lines; assay type: cell-based; details: all mesothelioma cell lines tested
Experimental: as §4

mesothelioma = details: single agent, mesothelioma patients; cited from earlier work

Thropomyosin Receptor Kinase A (TRKA), sequence (P04629 33-796): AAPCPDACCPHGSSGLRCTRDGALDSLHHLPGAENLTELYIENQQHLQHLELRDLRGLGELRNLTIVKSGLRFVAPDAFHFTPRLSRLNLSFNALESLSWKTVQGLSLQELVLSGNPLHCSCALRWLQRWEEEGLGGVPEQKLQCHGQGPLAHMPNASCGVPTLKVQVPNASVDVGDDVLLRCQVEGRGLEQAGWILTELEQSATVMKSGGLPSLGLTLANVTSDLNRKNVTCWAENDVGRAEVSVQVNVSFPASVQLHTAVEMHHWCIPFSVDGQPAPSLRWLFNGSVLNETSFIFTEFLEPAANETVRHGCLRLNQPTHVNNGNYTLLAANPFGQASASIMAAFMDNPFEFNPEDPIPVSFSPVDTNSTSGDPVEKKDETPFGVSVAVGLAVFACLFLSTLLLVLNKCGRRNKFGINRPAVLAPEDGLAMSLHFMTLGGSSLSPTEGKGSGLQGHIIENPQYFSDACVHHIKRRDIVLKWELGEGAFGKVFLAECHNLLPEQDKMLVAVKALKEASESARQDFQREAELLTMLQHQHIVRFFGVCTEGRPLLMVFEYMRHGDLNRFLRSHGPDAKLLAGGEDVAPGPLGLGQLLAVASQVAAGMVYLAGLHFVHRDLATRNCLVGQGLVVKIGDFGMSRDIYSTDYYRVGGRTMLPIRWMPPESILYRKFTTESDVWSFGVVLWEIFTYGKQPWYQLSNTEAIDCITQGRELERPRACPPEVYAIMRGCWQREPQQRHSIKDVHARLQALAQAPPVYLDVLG

IC50 [1] | IC50 [2] | IC50 [3] | IC50 [4] | IC50 [8] | Compound | Effect on cell cycle progression ([5]; 1 μM, 24 hours, FIG. 1) | Sub G1 peak (induction of apoptosis) ([5]; 3 μM, 24 hours, FIG. 1) | Sub G1 % (percentage of cells with a sub G1 DNA content, apoptosis) ([5]; 24 hours after treatment, cytofluorimetric analysis) | Sub G1 % (percentage of cells with a sub G1 DNA content, apoptosis) [6] | Sub G1 % (percentage of cells with a sub G1 DNA content, apoptosis) [7] | Rb phosphorylation ([9]; NCI-H28 cells (mutated in p16/CDKN2A)) | cdc6 expression ([9]; NCI-H28 cells) | cyclin A expression ([9]; NCI-H28 cells) | phosphorylation of AKT [10] | phosphorylation of MAPK [10] | phosphorylation of S6 [10] | cell cycle related markers [11] | median overall survival (mesothelioma) | response rate (mesothelioma)
53 nM | 0.23 ± 0.1 µM | 0.74 ± 0.37 µM | 1.56 ± 0.52 µM | 230 to 1560 nM | CNC(=O)c1nn(C)c2c1C(C)(C)Cc1cnc(Nc3ccc(N4CCN(C)CC4)cc3)nc1-2 [compound of formula (I), 8-[4-(4-methyl-piperazin-1-yl)-phenylamino]-1,4,4-trimethyl-4,5-dihydro-1H-pyrazolo[4,3-h]quinazoline-3-carboxylic acid methylamide] | G1 block | increase of the sub G1 peak | 24% | 14% | 5% | strong inhibition | strong inhibition | strong inhibition | Inhibition in phosphorylation | Inhibition in phosphorylation | Inhibition in phosphorylation | decrease | – | –
– | – | – | – | – | Nc1nc2[nH]cc(CCc3ccc(C(=O)N[C@@H](CCC(=O)O)C(=O)O)cc3)c2c(=O)[nH]1 [pemetrexed] | – | – | – | – | – | – | – | – | – | – | – | – | 10.7 months | 14.1%
